{
  "source": "patent US8933195B2",
  "about": "“Histone deacetylase inhibitors and synthetic method thereof and use thereof in manufacture of medicaments” (Nanjing Yoko Biomedical R & D Ltd., priority 2011, dated 2015)",
  "key": {"[1]": {"system": "MCF-7 (human breast cancer cells)", "assay": "MTT cancer cell growth inhibition", "type": "cell-based", "conditions": "MCF7, 72 h", "in_short": "(§1)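 1500 cells/well, DMEM or 1640 + 10% FBS, overnight 37 °C/5% CO2; cpd 10^−5–10^−10 M final, triplicate, 72 h; 0.1% DMSO vehicle; MTT 4 h; DMSO solubilisation; A570; % survival.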"}, "[2]": {"system": "U937 (human leukemia cells)", "assay": "MTT cancer cell growth inhibition", "type": "cell-based", "conditions": "U-937, 72 h", "in_short": "as §1"}, "[3]": {"system": "HT1080 (human fibrosarcoma cells)", "assay": "MTT cancer cell growth inhibition", "type": "cell-based", "conditions": "HT-1080, 72 h", "in_short": "as §1"}, "PANC-1": {"system": "PANC-1", "assay": "MTT cancer cell growth inhibition", "type": "cell-based", "conditions": "Homo sapiens, 72 h", "in_short": "as §1"}, "[4]": {"system": "A549 (human lung cancer cells)", "assay": "MTT cancer cell growth inhibition", "type": "cell-based", "conditions": "72 h", "in_short": "as §1"}, "[5]": {"system": "BGC-823 (human gastric cancer cells)", "assay": "MTT cancer cell growth inhibition", "type": "cell-based", "conditions": "72 h, read-out: GI50 BGC823", "in_short": "as §1"}, "[6]": {"system": "Hela (human cervical cancer cells)", "assay": "MTT cancer cell growth inhibition", "type": "cell-based", "conditions": "72 h", "in_short": "as §1"}, "[7]": {"system": "human colon cancer HCT-116", "assay": "Subcutaneously transplanted tumors in nude mice", "type": "in vivo, BALB/cA nude mice", "design": "key to RTV (mean ± SD): RTV = Vt/V0, tumor volume at time t over volume at d0", "conditions": "for TV (mean ± SD) d0 / Weight d0 / RTV (mean ± SD) / TV (mean ± SD) d21: 50 mg/kg qd × 3w iv; for RTV (mean ± SD) / TV (mean ± SD) d21: d21; for Tumor Volume TV (mean ± SD) d 0 / Tumor Volume TV (mean ± SD) d 3 / Tumor Volume TV (mean ± SD) d 7 / Tumor Volume TV (mean ± SD) d 10 / Tumor Volume TV (mean ± SD) d 14 / Tumor Volume TV (mean ± SD) d 17 / Weight (mean ± SD) d 0 / Weight (mean ± SD) d 3 / Weight (mean ± SD) d 7 / Weight (mean ± SD) d 10 / Weight (mean ± SD) d 14 / Weight (mean ± SD) d 17 / Weight (mean ± SD) d 21: 50 mg/kg", "procedure": "The solvents are isopropanol and anhydrous ethanol (mixed in the volume ratio of 1:1). The test sample is dissolved with solvents and physiological saline in the ratio of 1:1 for use, and the above solvents and physiological saline are dissolved in the ratio of 1:1 as a negative control.\nThe number of mice in each group: 12 mice in the negative control group, and 6 mice in the administration group.\nThe cell strains are inoculated to the right axilla subcutaneous layer of the nude mice, with 5×10^6 per mouse. After formed, the transplanted tumors are passed down two generations in the nude mice and then used.\nTumor tissues in the vigorous growth period are cut into about 1.5 mm^3, and inoculated to the right axilla subcutaneous layer of the nude mice under aseptic conditions. For the subcutaneously transplanted tumors of the nude mice, the diameter of the transplanted tumors is measured by a vernier caliper. The mice are randomly grouped after the tumors grow to 100-200 mm^3. […] The diameter of the transplanted tumors is measured twice per week in the whole experimental process, and meanwhile the weight of the mice is weighed. The calculation formula of tumor volume (TV) is TV=½×a×b^2, where a and b represent length and width, respectively.\nThe relative tumor volume (RTV) is calculated according to the measured results, with the following calculation formula: RTV=Vt/V0, where V0 is the tumor volume obtained by measurement during administration in different cages (i.e., d0), Vt is the tumor volume obtained by measurement at each time. […] (Wc−WT)Wc×100%, where Wc is the tumor weight of the control group, and WT is the tumor weight of the treatment group."}},
  "data": [
    {"smiles": "O=C(CCCCCCC(=O)Nc1ccccc1)NO", "note": "[SAHA, suberoylanilide hydroxamic acid, reference compound]", "values": [
      {"measurement": "GI50", "setting": "[1]", "value": 1.8, "unit": "µM"},
      {"measurement": "GI50", "setting": "[2]", "value": 2.31, "unit": "µM"},
      {"measurement": "GI50", "setting": "[3]", "value": 3.8, "unit": "µM"},
      {"measurement": "GI50", "setting": "PANC-1", "value": 7.46, "unit": "µM"},
      {"measurement": "GI50", "setting": "[4]", "value": 7.7, "unit": "µM"},
      {"measurement": "GI50", "setting": "[5]", "value": 4.5, "unit": "µM"},
      {"measurement": "GI50", "setting": "[6]", "value": 37.8, "unit": "µM"},
      {"measurement": "TV (mean ± SD) d0", "setting": "[7]; Table 1.1", "value": "116 ± 27", "unit": "mm^3"},
      {"measurement": "Weight d0", "setting": "[7]; Table 1.1", "value": 16.6, "unit": "g"},
      {"measurement": "RTV (mean ± SD)", "setting": "[7]; Table 1.1", "value": "4.87 ± 1.68"},
      {"measurement": "TV (mean ± SD) d21", "setting": "[7]; Table 1.1", "value": "566 ± 221", "unit": "mm^3"},
      {"measurement": "Tumor Volume TV (mean ± SD) d 0", "setting": "[7]; Table 1.2", "value": "116 ± 27", "unit": "mm^3"},
      {"measurement": "Tumor Volume TV (mean ± SD) d 3", "setting": "[7]; Table 1.2", "value": "146 ± 38", "unit": "mm^3"},
      {"measurement": "Tumor Volume TV (mean ± SD) d 7", "setting": "[7]; Table 1.2", "value": "191 ± 25", "unit": "mm^3"},
      {"measurement": "Tumor Volume TV (mean ± SD) d 10", "setting": "[7]; Table 1.2", "value": "283 ± 41", "unit": "mm^3"},
      {"measurement": "Tumor Volume TV (mean ± SD) d 14", "setting": "[7]; Table 1.2", "value": "326 ± 45", "unit": "mm^3"},
      {"measurement": "Tumor Volume TV (mean ± SD) d 17", "setting": "[7]; Table 1.2", "value": "417 ± 140", "unit": "mm^3"},
      {"measurement": "Weight (mean ± SD) d 0", "setting": "[7]; Table 1.3", "value": "16.6 ± 1.5", "unit": "g"},
      {"measurement": "Weight (mean ± SD) d 3", "setting": "[7]; Table 1.3", "value": "15.9 ± 1.5", "unit": "g"},
      {"measurement": "Weight (mean ± SD) d 7", "setting": "[7]; Table 1.3", "value": "14.9 ± 1.8", "unit": "g"},
      {"measurement": "Weight (mean ± SD) d 10", "setting": "[7]; Table 1.3", "value": "14.6 ± 1.4", "unit": "g"},
      {"measurement": "Weight (mean ± SD) d 14", "setting": "[7]; Table 1.3", "value": "14.1 ± 1.3", "unit": "g"},
      {"measurement": "Weight (mean ± SD) d 17", "setting": "[7]; Table 1.3", "value": "13.6 ± 1.3", "unit": "g"},
      {"measurement": "Weight (mean ± SD) d 21", "setting": "[7]; Table 1.3", "value": "13.3 ± 1.1", "unit": "g"},
      {"measurement": "TV (mean ± SD) d0", "setting": "[7]; Table 2.1", "value": "118 ± 25", "unit": "mm^3"},
      {"measurement": "Weight d0", "setting": "[7]; Table 2.1", "value": 16.9, "unit": "g"},
      {"measurement": "RTV (mean ± SD)", "setting": "[7]; Table 2.1", "value": "4.54 ± 1.72"},
      {"measurement": "TV (mean ± SD) d21", "setting": "[7]; Table 2.1", "value": "536 ± 203", "unit": "mm^3"},
      {"measurement": "Tumor Volume TV (mean ± SD) d 0", "setting": "[7]; Table 2.2", "value": "120 ± 25", "unit": "mm^3"},
      {"measurement": "Tumor Volume TV (mean ± SD) d 3", "setting": "[7]; Table 2.2", "value": "146 ± 36", "unit": "mm^3"},
      {"measurement": "Tumor Volume TV (mean ± SD) d 7", "setting": "[7]; Table 2.2", "value": "189 ± 20", "unit": "mm^3"},
      {"measurement": "Tumor Volume TV (mean ± SD) d 10", "setting": "[7]; Table 2.2", "value": "263 ± 33", "unit": "mm^3"},
      {"measurement": "Tumor Volume TV (mean ± SD) d 14", "setting": "[7]; Table 2.2", "value": "300 ± 35", "unit": "mm^3"},
      {"measurement": "Tumor Volume TV (mean ± SD) d 17", "setting": "[7]; Table 2.2", "value": "402 ± 146", "unit": "mm^3"},
      {"measurement": "Weight (mean ± SD) d 0", "setting": "[7]; Table 2.3", "value": "16.8 ± 1.0", "unit": "g"},
      {"measurement": "Weight (mean ± SD) d 3", "setting": "[7]; Table 2.3", "value": "15.7 ± 1.2", "unit": "g"},
      {"measurement": "Weight (mean ± SD) d 7", "setting": "[7]; Table 2.3", "value": "14.9 ± 1.6", "unit": "g"},
      {"measurement": "Weight (mean ± SD) d 10", "setting": "[7]; Table 2.3", "value": "14.6 ± 1.5", "unit": "g"},
      {"measurement": "Weight (mean ± SD) d 14", "setting": "[7]; Table 2.3", "value": "14.2 ± 1.4", "unit": "g"},
      {"measurement": "Weight (mean ± SD) d 17", "setting": "[7]; Table 2.3", "value": "13.8 ± 1.3", "unit": "g"},
      {"measurement": "Weight (mean ± SD) d 21", "setting": "[7]; Table 2.3", "value": "13.4 ± 1.1", "unit": "g"}
    ]}
  ]
}
